Measurements: ChEMBL document CHEMBL1201862, “PubChem BioAssay data set” (2004)
Values joined by “and” are separate entries in the source; they are usually repeats but may differ in a detail not shown here. Identical values can stand only once.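 1) Cells in 96-well plates. 2) Compound, 48 h, 5 concentrations. 3) Linear interpolation between surrounding doses. 4) Unreached endpoint = highest concentration. GI50 is the concentration that inhibits growth by half.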 Active and inactive are the calls of the source. No stated cut-off is given here; in the data, active = GI50 up to about 1.1 µM and inactive = higher.

Experiments:
Assay in all cases: NCI-60 cell line screen, 48 h
MDA-N = tested on: MDA-N
UACC-62 = tested on: UACC-62
PC-3 = tested on: PC-3
SR = tested on: SR
A498 = tested on: A498
CAKI-1 = tested on: CAKI-1
OVCAR-8 = tested on: OVCAR-8
UO-31 = tested on: UO-31
CCRF-CEM = tested on: CCRF-CEM
HOP-92 = tested on: HOP-92
NCI/ADR-RES = tested on: NCI/ADR-RES
T47D = tested on: T47D
MOLT-4 = tested on: MOLT-4
SNB-75 = tested on: SNB-75
SNB-19 = tested on: SNB-19
ACHN = tested on: ACHN
SK-MEL-2 = tested on: SK-MEL-2
SF-539 = tested on: SF-539
OVCAR-5 = tested on: OVCAR-5

For `CN(C)C(c1ccccc1)C1COC2Cc3ccccc3C1O2` (stereo not given), the GI50 (MDA-N) was > 100 µM (inactive), the GI50 (UACC-62) was > 100 µM (inactive) and the GI50 (PC-3) was 99.3 µM (inactive) and 76.4 µM (inactive). The GI50 (SR) was > 100 µM (inactive), the GI50 (A498) was > 100 µM (inactive) and the GI50 (CAKI-1) was > 100 µM (inactive). For the same molecule, the GI50 (OVCAR-8) was > 100 µM (inactive), the GI50 (UO-31) was > 100 µM (inactive) and the GI50 (CCRF-CEM) was 79.3 µM (inactive). For the same molecule, the GI50 (HOP-92) was 58.1 µM (inactive), the GI50 (NCI/ADR-RES) was > 100 µM (inactive) and the GI50 (T47D) was > 100 µM (inactive). The GI50 (MOLT-4) was > 100 µM (inactive) and 54 µM (inactive), the GI50 (SNB-75) was 24.9 µM (inactive) and 15.5 µM (inactive) and the GI50 (SNB-19) was > 100 µM (inactive). For the same molecule, the GI50 (ACHN) was > 100 µM (inactive), the GI50 (SK-MEL-2) was > 100 µM (inactive) and the GI50 (SF-539) was > 100 µM (inactive). For the same molecule, the GI50 (OVCAR-5) was > 100 µM (inactive).
`C[C@H]1CCC/C=C/[C@@H]2C[C@H](OC3OC(CO)C(O)C(O)C3O)C[C@H]2[C@H](O)/C=C/C(=O)O1` (stereo not given in full) was tested, and the GI50 (MDA-N) was 36.3 µM (inactive), the GI50 (UACC-62) was 35.6 µM (inactive) and the GI50 (PC-3) was 64.6 µM (inactive). The GI50 (SR) was > 100 µM (inactive), the GI50 (A498) was 25.5 µM (inactive) and the GI50 (CAKI-1) was > 100 µM (inactive). The GI50 (OVCAR-8) was 39.5 µM (inactive), the GI50 (UO-31) was 24.4 µM (inactive) and the GI50 (CCRF-CEM) was > 100 µM (inactive). For the same molecule, the GI50 (HOP-92) was > 100 µM (inactive), the GI50 (NCI/ADR-RES) was 33.3 µM (inactive) and the GI50 (T47D) was > 100 µM (inactive). For the same molecule, the GI50 (MOLT-4) was > 100 µM (inactive), the GI50 (SNB-75) was 35 µM (inactive) and the GI50 (SNB-19) was > 100 µM (inactive). The GI50 (ACHN) was > 100 µM (inactive), the GI50 (SK-MEL-2) was 49.5 µM (inactive) and the GI50 (SF-539) was 32.1 µM (inactive). The GI50 (OVCAR-5) was 37.3 µM (inactive).
With `CC(C)=CCC[C@@H](C)C1=C(Nc2ccccc2F)C(=O)C(C)=C(O)C1=O` the GI50 (MDA-N) was 10.6 µM (inactive), the GI50 (UACC-62) was 4.81 µM (inactive) and the GI50 (PC-3) was 8.61 µM (inactive). The GI50 (SR) was 11 µM (inactive), the GI50 (A498) was 6.78 µM (inactive) and the GI50 (CAKI-1) was 5.83 µM (inactive). The GI50 (OVCAR-8) was 3.49 µM (inactive), the GI50 (UO-31) was 4.45 µM (inactive) and the GI50 (CCRF-CEM) was 0.869 µM (active). For the same molecule, the GI50 (HOP-92) was 9.31 µM (inactive), the GI50 (NCI/ADR-RES) was 2.55 µM (inactive) and the GI50 (T47D) was 13.6 µM (inactive). The GI50 (MOLT-4) was 5.46 µM (inactive), the GI50 (SNB-75) was 12.7 µM (inactive) and the GI50 (SNB-19) was 4.42 µM (inactive). The GI50 (ACHN) was 3.5 µM (inactive), the GI50 (SK-MEL-2) was 8.75 µM (inactive) and the GI50 (SF-539) was 10.1 µM (inactive). For the same molecule, the GI50 (OVCAR-5) was 36.8 µM (inactive).
For `Cc1ccc(-c2cc(-c3ccc(Cl)cc3)nc(/N=C3\C(=O)N(CN4CCOCC4)c4ccc(Cl)cc43)n2)cc1`, the GI50 (MDA-N) was 32.6 µM (inactive), the GI50 (UACC-62) was 19.8 µM (inactive) and the GI50 (PC-3) was 30 µM (inactive). For the same molecule, the GI50 (SR) was 9.38 µM (inactive), the GI50 (A498) was 20.5 µM (inactive) and the GI50 (CAKI-1) was 23 µM (inactive). The GI50 (OVCAR-8) was 20.9 µM (inactive), the GI50 (UO-31) was 24.9 µM (inactive) and the GI50 (CCRF-CEM) was 20.4 µM (inactive). For the same molecule, the GI50 (HOP-92) was 17.9 µM (inactive), the GI50 (NCI/ADR-RES) was 22.6 µM (inactive) and the GI50 (T47D) was 17.3 µM (inactive). For the same molecule, the GI50 (MOLT-4) was 1.1 µM (active), the GI50 (SNB-75) was 29.9 µM (inactive) and the GI50 (SNB-19) was 34.8 µM (inactive). The GI50 (ACHN) was 19.9 µM (inactive), the GI50 (SK-MEL-2) was 20.1 µM (inactive) and the GI50 (SF-539) was 23 µM (inactive). For the same molecule, the GI50 (OVCAR-5) was 26.4 µM (inactive).
For `COc1ccc(C(OCC2OC(n3cc(C)c(=O)[nH]c3=O)CC2n2cc(Cn3cc(F)c(=O)[nH]c3=O)nn2)(c2ccccc2)c2ccccc2)cc1` (stereo not given), the GI50 (MDA-N) was 1.54 µM (inactive), the GI50 (UACC-62) was 11 µM (inactive) and the GI50 (PC-3) was 4.33 µM (inactive). For the same molecule, the GI50 (SR) was 2.51 µM (inactive), the GI50 (A498) was 10.1 µM (inactive) and the GI50 (CAKI-1) was 8.38 µM (inactive). For the same molecule, the GI50 (OVCAR-8) was 9.57 µM (inactive), the GI50 (UO-31) was 9.73 µM (inactive) and the GI50 (CCRF-CEM) was 2.56 µM (inactive). The GI50 (HOP-92) was 2.62 µM (inactive), the GI50 (NCI/ADR-RES) was 31.6 µM (inactive) and the GI50 (T47D) was 5.71 µM (inactive). For the same molecule, the GI50 (MOLT-4) was 4.54 µM (inactive), the GI50 (SNB-75) was 12.6 µM (inactive) and the GI50 (SNB-19) was 6.07 µM (inactive). For the same molecule, the GI50 (ACHN) was 10.8 µM (inactive), the GI50 (SK-MEL-2) was 6.31 µM (inactive) and the GI50 (SF-539) was 4.23 µM (inactive). For the same molecule, the GI50 (OVCAR-5) was 10.4 µM (inactive).
